Measured values taken from patent EP3952872B1, “CARBAMOYL CYCLOHEXANE DERIVATIVES FOR TREATING AUTISM SPECTRUM DISORDER” (Richter Gedeon Nyrt., priority 2019, dated 2020).
Entries after “also recorded” stand apart in the source; their conditions may differ. Read-outs that look alike come from different tables or passages of the source.

Key:
[1] = target: T1, serotonin 5-HT2B receptor (Homo sapiens, UniProt P41595); test: serotonin 5-HT2B receptor affinity; format: binding
dopamine D2L receptor = dopamine D2L receptor (Homo sapiens, UniProt P14416); test: dopamine D2L receptor affinity; format: binding
dopamine D2 receptor [2] = target: T2, dopamine D2 receptor (Homo sapiens, UniProt P14416); test: functional activity at dopamine D2 receptor; format: biochemical; conditions: Compound 2
[3] = target: T3, serotonin 5-HT1A receptor (Homo sapiens, UniProt P08908); conditions: Compound 2
T3 sequence (P08908 1-422): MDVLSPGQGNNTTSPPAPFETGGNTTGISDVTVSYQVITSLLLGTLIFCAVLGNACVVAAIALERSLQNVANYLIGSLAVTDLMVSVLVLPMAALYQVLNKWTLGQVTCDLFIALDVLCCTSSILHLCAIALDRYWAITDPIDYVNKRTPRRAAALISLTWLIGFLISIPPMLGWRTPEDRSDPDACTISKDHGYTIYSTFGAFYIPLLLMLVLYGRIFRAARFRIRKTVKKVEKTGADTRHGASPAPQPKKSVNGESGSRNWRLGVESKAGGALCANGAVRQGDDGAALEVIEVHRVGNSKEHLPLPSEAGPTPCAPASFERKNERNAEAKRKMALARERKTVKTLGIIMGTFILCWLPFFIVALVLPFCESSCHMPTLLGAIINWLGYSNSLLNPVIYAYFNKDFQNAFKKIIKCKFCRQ

[4] = target: T3, serotonin 5-HT1A receptor; test: biochemical
[5] = target: T1, serotonin 5-HT2B receptor; test: functional activity at serotonin 5-HT2B receptor; format: biochemical; conditions: Compound 2
dopamine D2S receptor = dopamine D2S receptor (Homo sapiens, UniProt P14416); test: dopamine D2S receptor affinity; format: binding
[6] = test system: prenatally valproate-treated rats; test: open field assay, prenatal valproate model; format: in vivo, Wistar rats; conditions: p.o. daily for 9 days, 0.003-0.1 mg/kg, male offspring
Experimental: Offspring are housed according to standard laboratory conditions until time of behavioral testing. Animals are housed in groups of 4 in conventional cages and maintained at 22-24°C on a standard 12 hour light/dark cycle, with food and water available ad libitum. After investigational drug treatment, offspring are examined behaviorally in tests relevant for the assessment of autistic behavior. These tests include maternal deprivation-induced ultrasonic vocalization in rat pups, social play, social preference and the open field. […] At postnatal day 31-32, animals are scored for locomotor activity and exploratory behavior in a 10-min trial in an open field test arena after 9-day oral treatment with the test compound. Activity is analysed for readouts of repetitive/stereotypic behaviors such as total distance moved and frequency of circling behavior. Statistical analysis employs one-way ANOVA and the post hoc Dunnett test.

[7] = target: T3, serotonin 5-HT1A receptor; conditions: cited from earlier work
[8] = test system: prenatally valproate-treated rats; test: social play behavior, prenatal valproate model; format: in vivo, Wistar rats; conditions: p.o. daily for 8 days; 0.003-0.1 mg/kg, significant at 0.1 mg/kg; male offspring; Figure 3
Experimental: Offspring are housed according to standard laboratory conditions until time of behavioral testing. Animals are housed in groups of 4 in conventional cages and maintained at 22-24°C on a standard 12 hour light/dark cycle, with food and water available ad libitum. After investigational drug treatment, offspring are examined behaviorally in tests relevant for the assessment of autistic behavior. These tests include maternal deprivation-induced ultrasonic vocalization in rat pups, social play, social preference and the open field. […] At postnatal day 30, following 8 days treatment with the test compound, prenatally VPA-treated rats are evaluated for juvenile play behavior. The test is carried out in a novel test arena with pairs of animals from the same treatment group over a 15-min trial. Animals are scored for play activity measured by duration of social play behavior. Statistical analysis employs one-way ANOVA and the post hoc Dunnett test.

[9] = target: T1, serotonin 5-HT2B receptor; conditions: literature; cited from earlier work
[10] = test system: prenatally valproate-treated rats; test: maternal deprivation-induced ultrasonic vocalization in rat pups, prenatal valproate model; format: in vivo, Wistar rats; conditions: acute p.o.; effect at 0.003, 0.03 and 0.1 mg/kg (0.01 mg/kg also tested); Figure 1
Experimental: Ultrasonic call counts are recorded for 10 min.

dopamine D2 receptor [11] = target: T2, dopamine D2 receptor; conditions: literature; cited from earlier work

T1 sequence (P41595 whole entry): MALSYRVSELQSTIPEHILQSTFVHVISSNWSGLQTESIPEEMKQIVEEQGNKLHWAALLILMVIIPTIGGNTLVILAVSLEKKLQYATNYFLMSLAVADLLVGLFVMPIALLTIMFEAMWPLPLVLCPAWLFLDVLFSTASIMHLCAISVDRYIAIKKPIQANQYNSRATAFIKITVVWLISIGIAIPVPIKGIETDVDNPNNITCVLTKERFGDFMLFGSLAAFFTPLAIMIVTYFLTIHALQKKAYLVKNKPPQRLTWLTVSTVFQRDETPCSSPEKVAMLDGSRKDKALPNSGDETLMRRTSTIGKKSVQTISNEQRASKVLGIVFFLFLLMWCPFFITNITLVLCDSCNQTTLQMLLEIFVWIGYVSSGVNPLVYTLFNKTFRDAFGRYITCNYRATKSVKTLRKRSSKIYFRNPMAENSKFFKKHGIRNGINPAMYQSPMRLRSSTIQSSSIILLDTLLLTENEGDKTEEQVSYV
T2 sequence (P14416 whole entry): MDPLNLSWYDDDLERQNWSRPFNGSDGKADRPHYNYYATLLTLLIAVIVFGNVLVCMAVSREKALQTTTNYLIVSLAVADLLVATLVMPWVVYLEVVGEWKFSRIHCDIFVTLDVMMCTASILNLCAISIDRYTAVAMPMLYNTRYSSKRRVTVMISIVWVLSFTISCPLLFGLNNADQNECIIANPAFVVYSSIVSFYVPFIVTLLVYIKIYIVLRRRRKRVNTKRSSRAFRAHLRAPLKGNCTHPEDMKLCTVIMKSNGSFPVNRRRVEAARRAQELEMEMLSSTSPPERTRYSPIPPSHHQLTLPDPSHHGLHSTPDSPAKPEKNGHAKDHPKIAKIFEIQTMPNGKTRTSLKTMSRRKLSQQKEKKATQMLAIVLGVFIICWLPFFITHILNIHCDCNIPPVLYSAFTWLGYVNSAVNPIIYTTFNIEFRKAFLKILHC
dopamine D2S receptor, sequence (P14416 1-414 isoform P14416-2): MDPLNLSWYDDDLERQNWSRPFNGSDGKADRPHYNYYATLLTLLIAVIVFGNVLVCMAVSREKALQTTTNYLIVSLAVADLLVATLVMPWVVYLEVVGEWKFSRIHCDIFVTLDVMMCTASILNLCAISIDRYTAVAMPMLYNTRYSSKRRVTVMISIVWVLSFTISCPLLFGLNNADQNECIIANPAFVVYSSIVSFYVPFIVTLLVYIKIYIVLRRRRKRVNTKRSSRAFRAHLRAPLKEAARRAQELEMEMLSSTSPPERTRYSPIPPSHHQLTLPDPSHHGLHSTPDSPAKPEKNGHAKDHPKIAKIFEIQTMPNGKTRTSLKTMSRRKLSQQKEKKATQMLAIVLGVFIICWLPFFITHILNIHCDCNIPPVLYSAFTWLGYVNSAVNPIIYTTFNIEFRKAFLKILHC
dopamine D2L receptor, sequence (P14416 whole entry): as the sequence (P14416 whole entry) above

| SMILES | Ki [1] [nM] | Ki (dopamine D2L receptor) [nM] | functional character at the dopamine D2 receptor (dopamine D2 receptor [2]) | functional character at the serotonin 5-HT1A receptor [3] | Ki [4] [nM] | functional character at the serotonin 5-HT2B receptor [5] | Ki (dopamine D2S receptor) [nM] | excessive motility / hyperactivity (distance travelled) ([6]; significant at 0.1 mg/kg, Figure 4) | excessive circling behavior (number of 360-degree turns) ([6]; significant at all doses, Figure 5) | intrinsic activity at the serotonin 5-HT1A receptor ([7]; literature (Heusler et al. 2016; Kiss et al. 2010)) [%] | functional character at the serotonin 5-HT1A receptor ([7]; literature) | social play deficit (time spent playing) [8] | functional character at the serotonin 5-HT2B receptor [9] | isolation-induced vocalizations (number of USV vocalizations) [10] | functional character at the dopamine D2 receptor (dopamine D2 receptor [11]) |
| --- | --- | --- | --- | --- | --- | --- | --- | --- | --- | --- | --- | --- | --- | --- | --- |
| O=C(N[C@H]1CC[C@H](CCN2CCN(c3cccc(Cl)c3Cl)CC2)CC1)N1CCOCC1 [Compound 2, trans-N-(4-{2-[4-(2,3-dichloro-phenyl)-piperazine-1-yl]-ethyl}-cyclohexyl)-morpholine-4 carboxamide] | 1.11 | 0.4 | partial agonist | weak partial agonist | 5.73 | full antagonist | 0.52 | – | – | – | – | – | – | – | – |
| CN(C)C(=O)N[C@H]1CC[C@H](CCN2CCN(c3cccc(Cl)c3Cl)CC2)CC1 [cariprazine, trans-N-[4-[2-[4-(2,3-dichlorophenyl)piperazin-1-yl]ethyl]cyclohexyl]-N',N'-dimethylurea] | – | – | – | – | – | – | – | fully reversed | statistically significant; also recorded: fully reversed | 38 | weak partial agonist | statistically significant; also recorded: partially nevertheless, significantly reversed | full antagonist | statistically significant; also recorded: fully reversed | partial agonist |
